# Experimental data from patent US20250263686A1, “METHODS OF INHIBITING NUCLEASE ACTIVITY, METHODS OF ISOLATING NUCLEI FROM CELLS, AND METHODS FOR EXTENDING DNA” (NATIONAL CHENG KUNG UNIVERSITY, priority 2024, published 2025).
# Legend:
# TdT [1] = target: T1, TdT (Bos taurus, UniProt P06526); experiment: TdT tailing of 3' recessed-end dsDNA substrate, electrophoresis and silver staining; type: biochemical; settings: 37° C. for 60 minutes; for TdT tailing of 3' recessed-end substrate, alternative ingredients: compared with dATP and Co2+ buffer, FIG. 3
# T1 construct: purchased
# T1 sequence (P06526 whole entry): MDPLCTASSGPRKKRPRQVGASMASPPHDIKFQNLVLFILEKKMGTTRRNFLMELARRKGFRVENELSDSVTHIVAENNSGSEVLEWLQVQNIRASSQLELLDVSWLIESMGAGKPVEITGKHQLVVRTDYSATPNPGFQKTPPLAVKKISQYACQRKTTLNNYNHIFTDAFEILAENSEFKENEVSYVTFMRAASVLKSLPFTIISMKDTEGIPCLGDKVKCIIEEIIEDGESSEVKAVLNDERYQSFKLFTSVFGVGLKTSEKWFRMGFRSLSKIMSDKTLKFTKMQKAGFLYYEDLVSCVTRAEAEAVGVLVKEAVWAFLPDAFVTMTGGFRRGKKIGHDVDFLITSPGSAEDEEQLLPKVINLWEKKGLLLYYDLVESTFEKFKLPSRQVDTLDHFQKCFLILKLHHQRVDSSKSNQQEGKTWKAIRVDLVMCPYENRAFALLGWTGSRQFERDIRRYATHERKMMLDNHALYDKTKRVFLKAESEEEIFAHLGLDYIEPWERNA
# Method: 3′ recessed dsDNA was prepared by annealing 25 μM each of SEQ ID NO: 2 and SEQ ID NO: 3 in Tris-HCl pH 8 (25 mM), NaCl (12.5 mM), and EDTA (0.25 mM). 2.5 pmole of the annealed substrate was incubated in 20 μL of reaction mixtures containing PMSF (0.5 mM), dATP (2 mM), TRITON® X-100 (0.1%), Tris-acetate pH 7.9 (20 mM), and either Mg^2+ or Co^2+ in chloride salt form (M^2+, 0.75 mM) as tailing cofactors, with (+) or without (−) of TdT (0.25 μL) at 37° C. for 60 minutes followed by 75° C. for 20 minutes. Subsequently, all the reactions were loaded for electrophoresis.
# 5 pmole of the 3′ recessed-end substrate as in Example 2 was incubated in 10 μL of reaction containing HEPES (H) or Tris-acetate (T) pH 7.9 (20 mM), dATP (dA) or dGTP (dG) (2 mM), CoCl2 (Co) or MnCl2 (Mn) (0.75 or 2 mM), DTT (0 or 0.2 mM), and TdT (0 or 0.25 μL) at 37° C. for 60 minutes followed by 75° C. for 20 minutes before loading half of the samples for electrophoresis (FIG. 3).
# TdT [2] = target: T1, TdT; experiment: TdT tailing of ssDNA oligo, electrophoresis and silver staining; type: biochemical; settings: dATP 2 mM, FIG. 1
# Method: 0.5 pmole of an ssDNA oligo (SEQ ID NO: 1) was incubated in 10 μL volumes of various compositions plus dATP (2 mM) and commercial TdT (0.25 μL) at 37° C., 45° C., 55° C., 65° C., 75° C. for 30, 5, 5, 5, 20 minutes, respectively. All the reaction was used for electrophoresis (FIG. 1).
# pancreatic nucleases = experiment: RNaseAlert fluorescent assay of nuclease activity in crude pancreatic lysate; type: biochemical, murine; settings: for inhibition of nuclease activity by Cu2+ in the presence of chelators: 2 mM CuSO4 plus 2 mM chelator, FIG. 10
# Method: The crude pancreatic lysate was prepared by lyzing 10 mg of murine pancreas in 400 μL of lysis buffer (HEPES pH 7.2 20 mM, NaCl 146 mM, CaCl2 1 mM, MgCl2 21 mM, TWEEN® 20 0.1%, NP-40 0.1%, and digitonin 0.01%). The lysis was performed by bead beating (10 seconds, 4500 rpm) in 2 ml plastic tubes containing 6 glass beads of 2.5-mm diameter. The lysate was subjected to centrifugation at 17,000 RCF for 1 minute before the cleared nuclease-laden supernatant was kept for the assays.
# To detect the nuclease activity, an RNaseAlert™ oligo made of chimeric DNA-RNA-DNA with a green fluorescence molecule on one end and a quencher on the other (50 nM) was used in 25 μL final reaction volume. The reactions were conducted in the pancreatic lysis buffer with a final volume of 25 μL, containing the specified additives (pancreatic lyate, CuSO4, or ZnSO4) in FIG. 5. After incubating at ambient temperature for 30 minutes, the reactions were diluted with 150 μL of the same buffer, excluding substrates and the lysate. Fluorescence detection was performed in triplicate, with excitation at 490 nm and emission at 520 nm.
# The RNaseAlert™ oligo (50 nM) was prepared in pancreatic lysis buffer with a final volume of 25 μL, containing the specified additives (pancreatic lysate, CuSO4, or Cu^2+-citric acid at various concentrations) in FIG. 7. After incubating at ambient temperature for 30 minutes, the reactions were diluted to 150 μL with the same buffer, excluding substrates and lysate, for fluorescence quantification in triplicate of 50 μL.
# The RNaseAlert™ oligo (50 nM) was prepared in pancreatic lysis buffer, either HEPES-SO4 at pH 4.5 or HEPES at pH 7.2, with a final volume of 25 μL, containing the specified additives (pancreatic lysate, Cu^2+, or chelators) and pH levels (pH 4.5 or 7.2) in FIG. 8. After incubating at ambient temperature for 30 minutes, the reactions were diluted to 150 μL with the same buffer, excluding substrates and lysate, for fluorescence quantification in triplicate of 50 μL.
# The RNaseAlert™ oligo (50 nM) was prepared in the pancreatic lysis buffer to a final volume of 25 μL, containing the specified additives (pancreatic lysate, 2 mM CuSO4, or 2 mM of various chelators), as shown in FIG. 10. After incubating at ambient temperature for 30 minutes, the reactions were diluted to 150 μL with the same buffer, excluding substrates and lysate, for fluorescence quantification in triplicate of 50 μL.
# The RNaseAlert™ oligo (50 nM) was prepared in either the pancreatic lysis buffer (Buffer P) or a low-pH buffer (Buffer C, composed of 25 mM citrate at pH 3 and 250 mM sucrose) to a final volume of 25 μL. The preparation contained the specified additives (pancreatic lysate, 1% DEPC, and Cu^2+-citric acid at specified concentrations) and is depicted in FIG. 11. After incubating at ambient temperature for 30 minutes, the reactions were diluted to 150 μL with the same buffer, excluding substrates and lysate, for fluorescence quantification in triplicate of 50 μL.
# [3] = Precipitation by optical density at 600 nm, with or without bovine serum albumin; type: physicochemical; settings: for protein aggregation / precipitation with bovine serum albumin (visual and OD600): BSA 10 g/L, pH 4.5, 5.5 and 7.2, FIG. 6
# Method: A total of 180 μL of reactions per well were prepared at ambient temperature in a 96-well plate. These reactions contained various buffers (none or 100 mM) at specified pH levels, Cu^2+ salts in either sulfate (no pH adjustment) or citrate form (at pH 4.5 or 7.2, as specified) at the indicated concentrations, and bovine serum albumin (10 g/L final concentration) in FIG. 6. The reactions were prepared in triplicate, photographed directly (FIG. 6, lower), and measured for optical density at 600 nm (FIG. 6, upper) to indicate precipitation.
# micrococcal nuclease = micrococcal nuclease (Staphylococcus aureus, UniProt P00644); experiment: RNaseAlert fluorescent assay with micrococcal nuclease; type: biochemical; settings: micrococcal nuclease 200 gel units, 10 minutes at ambient temperature, FIG. 9
# Method: (§1) The RNaseAlert™ oligo (50 nM) was prepared in pancreatic lysis buffer with a final volume of 25 μL, containing the specified additives (pancreatic lysate, Cu^2+-citric acid, or various nucleases) in FIG. 9. After incubating at ambient temperature for 10 minutes, the reactions were diluted to 150 μL with the same buffer, excluding substrates and lysate, for fluorescence quantification in triplicate of 50 μL.
# pancreatic nuclease = experiment: RT-qPCR of nuclear mRNA (GAPDH, PSMB4) in HEK293 nuclei exposed to pancreatic lysate; type: biochemical, murine; settings: 10 mM complex, pH 4.5 and 7.2, HEK293 nuclei, FIG. 12
# Method: To mimic nuclear extraction by direct lysis of challenging organs, HEK293 cells were lysed in the presence of nuclease-rich pancreatic lysate, with or without the Cu^2+-chelator complex: Thirty μL of pancreatic lysis buffer containing 50 mM HEPES at pH 4.5 or 7.2, 1× Halt proteinase inhibitor, 2 μL of pancreatic lysate, and either 0 mM (control) or 10 mM of Cu^2+-citric acid complex from 250 mM stock solutions (at pH 4.5 and 7.2, respectively) were prepared on ice. 20,000 HEK293T cells in 2 μL of PBS were added to the lysis buffer, and the nuclei were released by rotating the cells in the fridge for 15 minutes. The nuclear pellets were obtained by centrifugation in a swing-bucket rotor at 1,000 g for 1 minute, washed twice with the same buffers excluding HALT, with the detergent in the wash buffer removed and replaced with 0.05% PVA. The washed nuclei were lysed with 15 μL of lysis buffer containing 0.2% TX-100 and […] proteinase K by vortexing at 1,200 rpm for 30 minutes at 37° C. The lysate was divided equally into 20 μL RT reactions, each containing RNA lysates, 0.2 μL of PMSF (50 mM in DMSO), 1× RT buffer (Tris-HCl pH 8.3, 50 mM; KCl, 75 mM; MgCl2, 3 mM; DTT, 5 mM), dNTPs (final concentration 0.5 mM each), homemade rat RNase inhibitor (100 ng), PVA (0.05%), T23VN (1 μM), and either 0 (for genomic DNA control) or 100 ng of homemade reverse transcriptase. […]
# benzonase = benzonase (Serratia marcescens, UniProt P13717); experiment: RNaseAlert fluorescent assay with benzonase; type: biochemical; settings: benzonase 20 units, 10 minutes at ambient temperature, FIG. 9
# benzonase, sequence (P13717 22-266): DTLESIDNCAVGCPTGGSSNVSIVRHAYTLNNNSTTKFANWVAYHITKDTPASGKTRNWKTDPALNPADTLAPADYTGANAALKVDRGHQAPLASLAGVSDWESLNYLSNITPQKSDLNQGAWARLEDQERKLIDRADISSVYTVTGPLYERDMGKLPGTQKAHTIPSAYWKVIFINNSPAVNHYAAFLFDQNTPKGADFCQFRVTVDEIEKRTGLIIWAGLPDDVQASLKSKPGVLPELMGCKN
# Method: as §1
# RNase A = target: T2, RNase A (Bos taurus, UniProt P61823); experiment: RNaseAlert fluorescent assay with RNase A; type: biochemical; settings: RNase A 50 ng, 10 minutes at ambient temperature, FIG. 9
# T2 sequence (P61823 27-150): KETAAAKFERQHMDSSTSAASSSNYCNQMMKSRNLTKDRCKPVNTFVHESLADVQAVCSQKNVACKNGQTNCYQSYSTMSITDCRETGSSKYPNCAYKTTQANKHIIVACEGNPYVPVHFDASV
# Method: as §1
compound,measurement,setting,value
"[Cl][Co][Cl] [Co^2+, cobalt chloride]","TdT tailing of 3' recessed-end substrate, Co2+ versus Mg2+","TdT [1]; M2+ 0.75 mM, dATP 2 mM, FIG. 2",nearly complete upshift of the substrate
same,TdT poly(dA) tailing of ssDNA substrate,TdT [2],could replace Mg^2+ for tailing the ssDNA
"O=C(O)CN(CC(=O)O)CC(=O)O.[Cu] [Cu^2+ with nitrilotriacetic acid (NTA), copper; 2-[bis(carboxylatomethyl)amino]acetate;hydron]",inhibition of nuclease activity by Cu2+ in the presence of chelators,pancreatic nucleases; 30 minutes,still inhibited nuclease activity
"CC(=O)[O-].[K+] [K^+, potassium acetate]",TdT poly(dA) tailing of ssDNA substrate,TdT [2],detrimental to tailing
"CC(=O)[O-].CC(=O)[O-].[Mg+2] [Mg^2+, magnesium acetate]",TdT poly(dA) tailing of ssDNA substrate,TdT [2],yielded shorter tails
Nc1nc2c(ncn2[C@H]2C[C@H](O)[C@@H](COP(=O)(O)OP(=O)(O)OP(=O)(O)O)O2)c(=O)[nH]1 [dGTP],"TdT tailing of 3' recessed-end substrate, alternative ingredients",TdT [1],detrimental
"O=S(=O)([O-])[O-].[Cu+2] [Cu^2+, CuSO4]",protein aggregation / precipitation with bovine serum albumin (visual and OD600),[3],severe protein aggregation at pH above 5.5
same,"solubility in water (precipitation, OD600)","[3]; neutral pH, no protein, concentrations as low as 1 mM, FIG. 6",only minimally soluble
same,nuclease activity in pancreatic lysate,"pancreatic nucleases; CuSO4 in pancreatic lysis buffer pH 7.2, 30 minutes at ambient temperature, FIG. 5",effectively diminished the nuclease activity
"[Cl][Mn][Cl] [Mn^2+, MnCl2]","TdT tailing of 3' recessed-end substrate, alternative ingredients",TdT [1],not to improve
"O=C(O)CC(O)(CC(=O)O)C(=O)O.[Cu].[Cu] [Cu^2+-citric acid complex, dicopper; 2-hydroxypropane-1,2,3-tricarboxylic acid]",blocking of micrococcal nuclease activity,micrococcal nuclease,capable of blocking the activities
same,protection of nuclear RNA from degradation by pancreatic nuclease,pancreatic nuclease,necessary to protect and retain nuclear RNA from complete degradation
same,protein aggregation / precipitation with bovine serum albumin (visual and OD600),[3],resolved this issue at all pH values tested
same,blocking of benzonase activity,benzonase,capable of blocking the activities
same,blocking of RNase A activity,RNase A,capable of blocking the activities
same,inhibition of nuclease activity by Cu2+ in the presence of chelators,pancreatic nucleases; 30 minutes,still inhibited nuclease activity
same,RNase inhibition compared with low-pH buffer and DEPC,"pancreatic nucleases; 10 mM complex, 30 minutes, FIG. 11",comparable RNase inhibition to the low-pH buffer
same,nuclease-blocking activity at acidic and neutral pH,"pancreatic nucleases; pH 4.5 and pH 7.2, FIG. 8",active at both acidic and neutral pH
same,"blocking of pancreatic nuclease activity, chelated versus unchelated Cu2+","pancreatic nucleases; various concentrations, 30 minutes at ambient temperature, FIG. 7","still capable of blocking pancreatic nuclease activity in a dose-dependent manner, similar or even more potent to the unchelated form"
"O[C@H](CS)[C@H](O)CS (racemic) [DTT, dithiothreitol]","TdT tailing of 3' recessed-end substrate, alternative ingredients",TdT [1],does not affect the results
